# In patent US7166438B2, “In Vitro screening for ligands of the estrogen receptor” (priority 2001, dated 2007):
# Read-outs that look alike come from different tables or passages of the source.
# How the values were obtained:
# ER = experiment: Assay system I: transcriptional activation of an ER-dependent reporter gene; type: cell-based; settings: in vitro
# Method: The problem of the invention is achieved by a method of an in vitro screening for a test substance (ligand) involving selecting and detecting by means of at least two assay systems comprising the following steps: • (i) in a first cellular or tissue assay system selecting the ligand having transcriptional activity • which is mediated by activation of ER and which is measured by detecting potency in the cellular or tissue assay system comprising ER and an ER-driven reporter gene, • whereby, in the first assay system, the ligand activates the potency with an EC50(ER) (half-maximally effective ligand concentration) lower than or equal to 10 nmol/l, and • detecting the activation of the transcription; and • (ii) in a second cell-free or enzymatic assay system, selecting the physical-chemical interaction (recruitment) of SRC-1 and fragments thereof, and of the ER • which is measured by detecting the potency of this interaction in the cell-free or enzymatic system • wherein the ligand activates the ER and induces interaction with the co-present SRC-1 and fragments thereof in the second assay system with a EC50(ER+SRC) higher than or equal to 100 nmol/l, and detecting the potency of the physical-chemical interaction of SRC-1 and fragments thereof and of ER.
# The assay employed in this Example only used compounds which are characterized by estrogenic activity. The assays for finding the estrogenic compounds have already been developed and published. These assays are standard assays well known to the person skilled in the art.
# (§1) Using the assay described in Example 2, we selected the compound 3′ 15β-dihydrocycloprop[14,15]estra-1,3,5(10),8-tetraene-3,17α-diol [iii] for further examination of its neurotropic and systemic estrogenic effects.
# ER and SRC-1 protein = experiment: Assay system II: SRC-1 recruitment by the activated ER (fluorescence resonance energy transfer, cell-free); type: biochemical; settings: for Assay system II: First signs of significant interaction between ER and SRC-1 protein (dose in M): 175 ng his-tagged SRC-1 per well, significant = more than 2 times standard deviation from baseline; for Ratio between values measured in assay systems II and I: assay II dose / assay I EC50
# Excerpt: Recruitment: Recruitment of SRC-1 relates to the comparison of the degrees of association by protein-protein interaction between co-present ER and SRC-1 in the absence or presence of an ER-agonist. Numerically, recruitment is defined by the molar concentration of ER-agonist which is required for the occurrence of a significant (more than 2 times standard deviation from baseline) protein-protein interaction between co-expressed ER and SRC-1 in a test system. The baseline is defined by the interaction measured in an identical test system to which no […] has been added.
# The assay used in the present Example for investigating the recruitment of ER and co-activator SRC-1 is performed according to the publication of Gauchao ZHOH et al. (1998) Nuclear receptors have distinct affinities for co-activators: Characterization by fluorescence resonance energy transfer, Mol Endo, Vol 12, pp 1594–1604 especially on Page 1602. Furthermore, the assaysystem is described in WO/18124 from Cummings et al. Instead of the euriopium cryptate, mentioned in the International Application, europium chelate—100 ng of euriopium labeled anti-GST-antibody per well—is used in the assays. The labeled antibody was delivered from Wallac, now Perkin Elmer Lifesciences. (Eu-W1024 labeled anti-GST-Antibody for Lance Assays, Part Number AD 0065)
# The SRC-1 is used at a concentration of 175 ng his-tagged SRC-1 per well. SRC-1 is present in every well of this assay system.
# ERα = target: T1, ERα (Homo sapiens, UniProt P03372); experiment: Relative binding affinity to ERα; settings: relative to 17β-estradiol
# T1 sequence (P03372 1-595): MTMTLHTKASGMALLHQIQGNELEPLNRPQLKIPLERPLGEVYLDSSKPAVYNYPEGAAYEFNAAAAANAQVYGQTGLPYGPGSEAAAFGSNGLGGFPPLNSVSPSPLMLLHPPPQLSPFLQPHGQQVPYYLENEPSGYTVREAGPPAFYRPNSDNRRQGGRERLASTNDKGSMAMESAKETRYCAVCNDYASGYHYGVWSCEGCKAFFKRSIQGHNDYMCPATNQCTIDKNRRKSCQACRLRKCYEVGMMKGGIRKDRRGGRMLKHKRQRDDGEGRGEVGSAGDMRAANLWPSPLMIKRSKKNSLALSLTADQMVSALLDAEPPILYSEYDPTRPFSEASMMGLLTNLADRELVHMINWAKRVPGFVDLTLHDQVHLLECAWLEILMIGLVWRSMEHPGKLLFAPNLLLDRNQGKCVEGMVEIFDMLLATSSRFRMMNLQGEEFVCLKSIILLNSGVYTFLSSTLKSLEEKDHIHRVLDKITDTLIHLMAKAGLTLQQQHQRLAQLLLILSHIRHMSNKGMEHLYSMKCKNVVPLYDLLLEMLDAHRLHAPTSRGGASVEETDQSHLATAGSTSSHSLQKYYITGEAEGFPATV
# Excerpt: as §1
# ERβ = ERβ (Homo sapiens, UniProt Q92731); experiment: Relative binding affinity to ERβ; settings: relative to 17β-estradiol
# Sequence of ERβ (Q92731 whole entry, species assumed): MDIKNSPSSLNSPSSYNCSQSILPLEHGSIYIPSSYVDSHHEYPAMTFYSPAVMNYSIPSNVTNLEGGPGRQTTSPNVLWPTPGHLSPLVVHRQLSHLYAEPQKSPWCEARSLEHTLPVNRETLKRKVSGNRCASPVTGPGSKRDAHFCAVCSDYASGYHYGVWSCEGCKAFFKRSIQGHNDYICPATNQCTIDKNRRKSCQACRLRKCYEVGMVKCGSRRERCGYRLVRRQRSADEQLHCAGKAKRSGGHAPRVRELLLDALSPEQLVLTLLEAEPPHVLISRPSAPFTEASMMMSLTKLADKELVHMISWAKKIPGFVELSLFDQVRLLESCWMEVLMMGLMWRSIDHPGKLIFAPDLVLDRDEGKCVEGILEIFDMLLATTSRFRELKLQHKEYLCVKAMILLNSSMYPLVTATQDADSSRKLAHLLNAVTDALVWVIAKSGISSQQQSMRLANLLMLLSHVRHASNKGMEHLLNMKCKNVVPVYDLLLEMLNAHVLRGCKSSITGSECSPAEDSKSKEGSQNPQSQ
# Excerpt: as §1
# [1] = system: peripheral estrogen-target organs (uterus, thymus, adrenal glands); experiment: Morphometric assessment of estrogen-sensitive organs in ovariectomized female rats; type: in vivo, rat; settings: subcutaneous
# Method: (§2) Different doses of the compound of interest and the reference 17β-estradiol were administered subcutaneously in ovariectomized female rats for seven consecutive days. The effect of the compounds on the cognitive performance of experimental animals was evaluated by monitoring the acquisition, consolidation and retrieval of active avoidance behavior. Upon sacrifice, morphometric assessment was made of estrogen-sensitive organs (uterus, thymus, adrenal glands). Neurochemical effects were assessed by quantification of the transcription of ER-induced CNS-specific genes in different brain areas, endowed with different amounts of SRC-1.
# bcl-2 = experiment: Transcription of estrogen-regulated gene bcl-2 in cerebral cortex of ovariectomized female rats; type: in vivo, rat; settings: subcutaneous, seven days, equal dose comparison with 17β-estradiol
# Method: as §2
# oxytocin receptors = experiment: Estrogen-dependent expression of oxytocin receptors in ventromedial nucleus of ovariectomized female rats; type: in vivo, rat; settings: subcutaneous, seven days, compared with 17β-estradiol
# Method: as §2
# [2] = system: ovariectomized female rats; experiment: Active avoidance behavior (cognitive performance) in ovariectomized female rats; type: in vivo, rat; settings: subcutaneous, seven days, compared with 17β-estradiol
# Method: as §2
# [3] = read-out: Assay system I: Transcriptional activation of an ER-dependent reporter gene (EC50 in M) (converted)
Structure (SMILES),EC50 (ER; read-out: Assay system I: Transcriptional activation of an ER-dependent reporter gene (EC50 in M)),Assay system II: First signs of significant interaction between ER and SRC-1 protein (dose in M) (ER and SRC-1 protein),Ratio between values measured in assay systems II and I (ER and SRC-1 protein),"EC50 (ER; listed as 17β-estradiol, read-out: Assay system I: Transcriptional activation of an ER-dependent reporter gene (EC50 in M) (converted))",EC50 (ER; [3]),recruitment of SRC-1 upon ER binding (in words) (ER and SRC-1 protein),"relative affinity to ERα, of that of 17β-estradiol (ERα)","relative affinity to ERβ, of that of 17β-estradiol (ERβ)","capacity to induce estrogen-like effects in peripheral estrogen-target organs (uterus, thymus, adrenal glands) ([1]; seven consecutive days, compared with 17β-estradiol)",estrogen-dependent changes in peripheral estrogen-sensitive organs at behaviorally effective treatment ([1]; seven days),stimulation of transcription of antiapoptotic estrogen-regulated gene bcl-2 in the cerebral cortex (bcl-2),induction of estrogen-dependent expression of oxytocin receptors in the ventromedial nucleus (VMN) (oxytocin receptors),"behavioral (cognitive) effect, retention of newly acquired active avoidance behavior [2]"
"CC12CCC3=C(CCc4cc(O)ccc43)C13CC3CC2O (stereo not drawn) [[iii], 3′,15β-dihydrocycloprop[14,15]-estra-1,3,5(10),8-tetraene-3,17α-diol]",–,10^−7 M,100.0,–,1 nM,–,25–30 per cent,25–30 per cent,several times lower than that of the natural estrogen 17β-estradiol,not associated with estrogen-dependent changes in peripheral estrogen-sensitive organs,to a higher degree than does 17β-estradiol given at an equal dose,to a significantly lower degree than 17β-estradiol,indistinguishable from that of 17β-estradiol
"C=CCC1CC(O)C2(C)CCC3c4ccc(O)cc4CCC3C12 (stereo not drawn) [[iv], 15β-allyl-estra-1,3,5,(10)-triene-3,17β-diol]",–,10^−7 M,25.0,–,4 nM,–,–,–,–,–,–,–,–
"CCCC1CC(O)C2(C)CCC3c4ccc(O)cc4CCC3C12 (stereo not drawn) [[v], 15β-propyl-estra-1,3,5,(10)-triene-3,17β-diol]",–,10^−7 M,10.0,–,10 nM,–,–,–,–,–,–,–,–
